Source: patent US20230070582A1, “UTILIZATION OF FGF ACTIVATORS IN CULTURE MEDIA” (Yissum Research Development Company of the Hebrew …, priority 2020, published 2023)

Columns and labels:
FGF pathway = details: by activating ERK pathway; zebrafish heart model; Molina et al. 2009; cited from earlier work
ovine fibroblasts = assay: XTT cell proliferation assay, ovine fibroblasts 2D culture, gradient concentrations; assay type: cell-based; details: FIG. 3
Protocol: The effects of gradient concentration of both small molecules (ID-8 and FK-506) in ranges from about 1-50 μM for ID-8 and about 1-50 nM for FK-506 were tested on ovine fibroblasts 2D culture. Ovine fibroblasts were seeded in 96-well plate at a density of 1000 cells/well. ID-8 and FK-506 in serum free medium were incubated with the fibroblast cells for 48 hours before adding XTT (cell proliferation assay from Biological Industries, Israel) according to company protocol. Colorimetric signal was measured after 8 hours of XTT addition. Blank (medium only) measurements were subtracted from the sample measurements (n=4).

[1] = test system: Bovine fibroblasts adapted to suspension culture; assay: Bovine fibroblast cell growth in serum-free suspension culture, cell count on Day 3; assay type: cell-based; details: Day 3 count, FIG. 1
Protocol: Effects of ID-8 and/or FK-506 (alone or combined) on bovine fibroblast cell growth were evaluated. Bovine fibroblasts adapted to suspension culture were seeded in 0.3 millions/ml in a total volume of 20 ml in cell culture flasks. The flasks were kept in a shaker incubator with 100 rpm, 37° C., and 5% CO2. Cell counts were done on Day 3 using automatic cell counter (Cellaca®) with APOI staining to eliminate the dead cells from the counts.

mouse ESCs = details: serum-free culture; Miyabayashi et al. 2008; cited from earlier work

Cl.O=C1/C(=C/c2ccccc2)C(NC2CCCCC2)c2ccccc21 (mixture of isomers) [(E/Z)-BCI hydrochloride]
effect on FGF pathway (FGF pathway): hyperactivates FGF pathway

C=CC[C@@H]1/C=C(\C)C[C@H](C)C[C@H](OC)[C@H]2O[C@@](O)(C(=O)C(=O)N3CCCC[C@H]3C(=O)O[C@H](/C(C)=C/[C@@H]3CC[C@@H](O)[C@H](OC)C3)[C@H](C)[C@@H](O)CC1=O)[C@H](C)C[C@@H]2OC [FK-506, Tacrolimus]
effect on ovine fibroblast cell growth (ovine fibroblasts; higher concentration of FK-506, e.g. 5 nM, 20 nM or 50 nM, with ID-8 at 1 μM): did not show significant effect on cell growth
concentration of FK-506 giving the best cell growth (optimal concentration) (ovine fibroblasts; in combination with ID-8, 48 hours): 1 to 2 nM
effect on bovine fibroblast cell growth as compared to FGF (10 ng/ml) ([1]; FK-506 alone 2 nM): didn't obtain a comparable effect

COc1ccc(-n2c(C)c([N+](=O)[O-])c3ccc(O)cc32)cc1 [ID-8]
ovine fibroblast cell growth versus control (no FGF) (ovine fibroblasts; higher concentrations of ID-8, e.g. 10 μM or 50 μM): more cell growth than the control
concentration of ID-8 giving the best cell growth (optimal concentration) (ovine fibroblasts; in combination with FK-506, 48 hours): 1 to 5 µM
self-renewal of mouse ESCs (mouse ESCs): support self-renewal
effect on bovine fibroblast cell growth as compared to FGF (10 ng/ml) ([1]; ID-8 alone 1 μM): comparable effect
